Converted amounts (≈) assume the structure as drawn.
Legend:
[1] = biological target: T1, Histone-lysine N-methyltransferase EHMT2 (Homo sapiens, UniProt Q96KQ7); assay: Inhibition G9a (unknown origin)
T1 sequence (Q96KQ7 whole entry): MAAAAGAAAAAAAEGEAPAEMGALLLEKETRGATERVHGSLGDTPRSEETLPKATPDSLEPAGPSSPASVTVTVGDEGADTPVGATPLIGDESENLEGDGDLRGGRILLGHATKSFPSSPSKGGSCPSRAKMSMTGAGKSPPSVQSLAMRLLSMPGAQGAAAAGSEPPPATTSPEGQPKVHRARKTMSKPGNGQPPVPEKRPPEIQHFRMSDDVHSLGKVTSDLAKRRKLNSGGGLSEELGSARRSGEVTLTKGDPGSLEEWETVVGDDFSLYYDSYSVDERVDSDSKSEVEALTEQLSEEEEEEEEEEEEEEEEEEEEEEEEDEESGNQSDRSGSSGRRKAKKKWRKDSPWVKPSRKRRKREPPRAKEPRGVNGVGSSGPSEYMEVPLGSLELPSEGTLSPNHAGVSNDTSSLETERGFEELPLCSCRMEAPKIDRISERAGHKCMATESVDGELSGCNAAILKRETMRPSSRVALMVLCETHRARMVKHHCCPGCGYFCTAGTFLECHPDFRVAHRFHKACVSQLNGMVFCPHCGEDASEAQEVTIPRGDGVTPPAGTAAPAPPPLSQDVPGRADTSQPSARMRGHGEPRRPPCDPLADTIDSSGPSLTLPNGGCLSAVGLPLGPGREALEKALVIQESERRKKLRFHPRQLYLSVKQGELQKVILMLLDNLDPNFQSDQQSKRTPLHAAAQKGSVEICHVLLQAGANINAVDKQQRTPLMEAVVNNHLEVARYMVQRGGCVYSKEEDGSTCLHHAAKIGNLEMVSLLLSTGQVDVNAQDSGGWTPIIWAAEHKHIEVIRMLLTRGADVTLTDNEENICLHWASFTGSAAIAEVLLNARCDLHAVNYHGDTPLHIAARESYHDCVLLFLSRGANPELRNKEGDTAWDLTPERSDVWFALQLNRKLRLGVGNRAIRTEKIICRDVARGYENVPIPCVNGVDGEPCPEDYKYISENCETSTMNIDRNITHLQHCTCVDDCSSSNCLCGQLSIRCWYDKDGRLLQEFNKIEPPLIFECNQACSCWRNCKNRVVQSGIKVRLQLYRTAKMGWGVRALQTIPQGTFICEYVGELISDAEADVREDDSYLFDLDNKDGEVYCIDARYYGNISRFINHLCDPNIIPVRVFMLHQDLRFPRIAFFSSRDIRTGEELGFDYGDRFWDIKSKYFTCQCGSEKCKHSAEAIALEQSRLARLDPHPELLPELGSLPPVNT

[2] = Aqueous solubility of the compound in pH 6.8 JP2 fluid; assay type: physicochemical
[3] = Metabolic stability in mouse liver microsomes assessed as compound remaining at 0.5 mg/mL incubated for 0.5 hrs; assay type: ADME, Microsome; conditions: read-out: Stabilty
[4] = Metabolic stability in human liver microsomes assessed as compound remaining at 0.5 mg/mL incubated for 0.5 hrs; assay type: ADME, Microsome; conditions: read-out: Stabilty
CYP2C8 = biological target: T2, CYP2C8 (Homo sapiens, UniProt P10632); assay: Inhibition of CYP2C8 (unknown origin) at 10 uM relative to control; assay type: ADME
T2 sequence (P10632 whole entry): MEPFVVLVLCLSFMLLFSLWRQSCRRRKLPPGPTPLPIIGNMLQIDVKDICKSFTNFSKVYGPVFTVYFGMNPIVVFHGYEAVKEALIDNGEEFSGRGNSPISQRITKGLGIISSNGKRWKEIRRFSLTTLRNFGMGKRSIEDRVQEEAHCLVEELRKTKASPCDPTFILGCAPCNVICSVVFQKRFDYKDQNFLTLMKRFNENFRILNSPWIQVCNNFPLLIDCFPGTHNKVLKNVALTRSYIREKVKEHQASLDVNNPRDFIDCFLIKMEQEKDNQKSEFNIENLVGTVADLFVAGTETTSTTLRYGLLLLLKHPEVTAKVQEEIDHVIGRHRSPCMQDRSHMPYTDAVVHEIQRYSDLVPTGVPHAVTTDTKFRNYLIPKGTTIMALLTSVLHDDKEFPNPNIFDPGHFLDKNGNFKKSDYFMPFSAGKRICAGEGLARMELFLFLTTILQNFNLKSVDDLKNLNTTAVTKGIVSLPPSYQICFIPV

CYP2C9 = CYP2C9 (Homo sapiens, UniProt P11712); assay: Inhibition of CYP2C9 (unknown origin) at 10 uM relative to control; assay type: ADME
Sequence of CYP2C9 (P11712 whole entry): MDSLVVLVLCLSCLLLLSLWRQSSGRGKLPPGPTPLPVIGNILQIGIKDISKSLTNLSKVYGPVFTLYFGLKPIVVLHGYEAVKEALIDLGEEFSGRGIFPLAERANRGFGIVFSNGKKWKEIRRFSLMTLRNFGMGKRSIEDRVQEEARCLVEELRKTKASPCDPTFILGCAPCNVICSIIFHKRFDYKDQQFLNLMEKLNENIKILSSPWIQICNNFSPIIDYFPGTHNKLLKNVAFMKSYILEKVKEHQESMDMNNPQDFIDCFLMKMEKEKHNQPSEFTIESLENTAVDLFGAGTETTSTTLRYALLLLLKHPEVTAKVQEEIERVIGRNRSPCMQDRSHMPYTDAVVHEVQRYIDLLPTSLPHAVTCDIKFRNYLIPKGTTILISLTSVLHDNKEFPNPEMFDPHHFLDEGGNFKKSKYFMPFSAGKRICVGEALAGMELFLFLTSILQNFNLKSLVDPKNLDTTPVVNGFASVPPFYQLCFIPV

CYP2C19 = CYP2C19 (Homo sapiens, UniProt P33261); assay: Inhibition of CYP2C19 (unknown origin) at 10 uM relative to control; assay type: ADME
Sequence of CYP2C19 (P33261 whole entry): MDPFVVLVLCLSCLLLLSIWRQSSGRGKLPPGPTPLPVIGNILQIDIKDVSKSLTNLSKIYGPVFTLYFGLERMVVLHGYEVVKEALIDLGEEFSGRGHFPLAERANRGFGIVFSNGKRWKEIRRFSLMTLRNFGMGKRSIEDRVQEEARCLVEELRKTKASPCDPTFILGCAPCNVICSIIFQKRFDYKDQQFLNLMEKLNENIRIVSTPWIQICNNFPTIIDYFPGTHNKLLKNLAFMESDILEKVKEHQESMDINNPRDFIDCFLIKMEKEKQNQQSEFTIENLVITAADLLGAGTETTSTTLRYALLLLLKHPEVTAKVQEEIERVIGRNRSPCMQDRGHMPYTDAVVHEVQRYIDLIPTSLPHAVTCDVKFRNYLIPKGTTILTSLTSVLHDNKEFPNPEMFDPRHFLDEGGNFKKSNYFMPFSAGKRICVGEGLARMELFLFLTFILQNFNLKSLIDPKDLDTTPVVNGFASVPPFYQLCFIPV

[5] = Cmax in mouse at 10 mg/kg, po; assay type: ADME, organism-based; design: route oral, dose 10 mg/kg; conditions: in vivo
hERG (KCNH2) = hERG (KCNH2) (Homo sapiens, UniProt Q12809); assay: Inhibition of human ERG at 10 uM relative to control
Sequence of hERG (KCNH2) (Q12809 whole entry): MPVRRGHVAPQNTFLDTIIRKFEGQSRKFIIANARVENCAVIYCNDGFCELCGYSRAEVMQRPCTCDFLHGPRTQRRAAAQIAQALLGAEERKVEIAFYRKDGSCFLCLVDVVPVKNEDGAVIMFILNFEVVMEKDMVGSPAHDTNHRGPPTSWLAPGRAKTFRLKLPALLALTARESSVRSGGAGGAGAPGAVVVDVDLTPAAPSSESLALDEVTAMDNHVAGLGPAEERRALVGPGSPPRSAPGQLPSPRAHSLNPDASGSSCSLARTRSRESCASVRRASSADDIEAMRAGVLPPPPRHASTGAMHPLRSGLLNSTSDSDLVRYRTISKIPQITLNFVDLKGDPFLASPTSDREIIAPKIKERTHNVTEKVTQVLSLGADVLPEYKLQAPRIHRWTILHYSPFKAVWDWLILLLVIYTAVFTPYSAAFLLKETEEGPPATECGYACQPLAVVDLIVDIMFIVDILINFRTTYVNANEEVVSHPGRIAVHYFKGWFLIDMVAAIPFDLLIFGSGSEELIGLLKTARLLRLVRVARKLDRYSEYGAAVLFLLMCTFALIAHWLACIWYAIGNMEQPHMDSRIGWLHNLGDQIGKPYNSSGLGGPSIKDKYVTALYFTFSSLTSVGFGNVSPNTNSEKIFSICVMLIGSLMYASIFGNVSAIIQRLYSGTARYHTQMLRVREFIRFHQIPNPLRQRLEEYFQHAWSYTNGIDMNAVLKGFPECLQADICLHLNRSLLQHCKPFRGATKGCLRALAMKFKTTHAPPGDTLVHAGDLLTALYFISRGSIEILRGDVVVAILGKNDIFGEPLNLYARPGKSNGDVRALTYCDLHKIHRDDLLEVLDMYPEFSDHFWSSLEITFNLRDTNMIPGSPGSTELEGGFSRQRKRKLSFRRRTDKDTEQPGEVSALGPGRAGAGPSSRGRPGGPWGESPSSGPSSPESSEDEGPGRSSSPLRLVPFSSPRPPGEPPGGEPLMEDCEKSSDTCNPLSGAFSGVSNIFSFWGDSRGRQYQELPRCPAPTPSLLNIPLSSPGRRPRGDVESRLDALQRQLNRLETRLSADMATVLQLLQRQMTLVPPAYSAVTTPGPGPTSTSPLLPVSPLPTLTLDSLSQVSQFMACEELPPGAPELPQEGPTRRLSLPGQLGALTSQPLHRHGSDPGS

CYP3A4 = CYP3A4 (Homo sapiens, UniProt P08684); assay: Mechanism based inhibition of CYP3A4 in human liver microsome assessed as remaining percentage at 100 uM in presence of substrate ACN preincubated 30 mins followed by substrate addition relative to control; assay type: ADME; conditions: liver microsomes, probe ACN (so in the source), read-out: Activity
Sequence of CYP3A4 (P08684 whole entry): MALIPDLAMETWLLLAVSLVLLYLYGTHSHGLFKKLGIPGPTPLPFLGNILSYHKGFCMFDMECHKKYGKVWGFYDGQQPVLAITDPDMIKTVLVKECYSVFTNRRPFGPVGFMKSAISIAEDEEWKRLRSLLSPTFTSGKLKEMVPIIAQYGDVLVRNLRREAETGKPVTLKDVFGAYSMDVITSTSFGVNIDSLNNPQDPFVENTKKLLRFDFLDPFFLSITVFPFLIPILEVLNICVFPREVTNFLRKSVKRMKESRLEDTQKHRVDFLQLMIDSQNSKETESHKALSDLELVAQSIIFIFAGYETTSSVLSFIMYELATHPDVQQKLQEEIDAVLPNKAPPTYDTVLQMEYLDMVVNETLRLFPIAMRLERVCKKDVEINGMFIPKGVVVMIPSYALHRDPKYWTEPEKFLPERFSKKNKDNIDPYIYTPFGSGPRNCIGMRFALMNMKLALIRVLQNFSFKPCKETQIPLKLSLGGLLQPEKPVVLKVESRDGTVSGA

[6] = Tmax in mouse at 10 mg/kg, po; assay type: ADME, organism-based; conditions: in vivo
[7] = AUC (0 to infinity) in mouse at 1 mg/kg, iv; assay type: ADME, organism-based; design: time infinity, route intravenous, dose 1 mg/kg; conditions: in vivo

Structure (SMILES) | IC50 [1] [nM] | solubility [2] [µg/mL] | remaining at 0.5 h [3] [%] | remaining at 0.5 h [4] [%] | inhibition at 10 µM (CYP2C8) [%] | inhibition at 10 µM (CYP2C9) [%] | inhibition at 10 µM (CYP2C19) [%] | Cmax [5] [nM] | inhibition at 10 µM (hERG (KCNH2)) [%] | activity at 30 min, 100 µM (CYP3A4) [%] | Tmax [6] [h] | AUC(0-inf) [7] [µM·h]
CNc1cc(C)nc(Nc2ccc(OC)c(C3=CCNCCC3)c2)n1 | 4.31 | 640 (≈ 1890 µM) | 34 | 96 | 0 | 0 | 9 | 450 | 1 | 80.5 | 2 | 0.79
CNc1cc(C)nc(Nc2ccc(OC)c(OCCCN3CCCC3)c2)n1 | 16.9 | 590 (≈ 1590 µM) | 48 | 99 | 2 | 0 | 3 | 220 | 42 | 93.6 | 5.5 | 1.71

From ChEMBL document CHEMBL4725338, “Discovery of novel histone lysine methyltransferase G9a/GLP (EHMT2/1) inhibitors: Design, synthesis, and structure-activity relationships of 2,4-diamino-6-methylpyrimidines” (Bioorg Med Chem Lett, 2020)
